# In ChEMBL document CHEMBL1201862, “PubChem BioAssay data set” (2004):
# Where a name gives a salt, the structure may show the parent alone. Active and inactive are the calls of the source.
# Tests used:
# [1] = target: T1, Short transient receptor potential channel 4 (Mus musculus, UniProt Q9QUQ5); assay: mouse TRPC4 channel inhibitors, dose response, cell-based, HEK293 TRPC4/mu-opioid, Fluo-4 calcium (AID 434942); type: functional;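 also: potency of inhibitors blocking the TRPC4 calcium response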
# T1 sequence (Q9QUQ5 whole entry): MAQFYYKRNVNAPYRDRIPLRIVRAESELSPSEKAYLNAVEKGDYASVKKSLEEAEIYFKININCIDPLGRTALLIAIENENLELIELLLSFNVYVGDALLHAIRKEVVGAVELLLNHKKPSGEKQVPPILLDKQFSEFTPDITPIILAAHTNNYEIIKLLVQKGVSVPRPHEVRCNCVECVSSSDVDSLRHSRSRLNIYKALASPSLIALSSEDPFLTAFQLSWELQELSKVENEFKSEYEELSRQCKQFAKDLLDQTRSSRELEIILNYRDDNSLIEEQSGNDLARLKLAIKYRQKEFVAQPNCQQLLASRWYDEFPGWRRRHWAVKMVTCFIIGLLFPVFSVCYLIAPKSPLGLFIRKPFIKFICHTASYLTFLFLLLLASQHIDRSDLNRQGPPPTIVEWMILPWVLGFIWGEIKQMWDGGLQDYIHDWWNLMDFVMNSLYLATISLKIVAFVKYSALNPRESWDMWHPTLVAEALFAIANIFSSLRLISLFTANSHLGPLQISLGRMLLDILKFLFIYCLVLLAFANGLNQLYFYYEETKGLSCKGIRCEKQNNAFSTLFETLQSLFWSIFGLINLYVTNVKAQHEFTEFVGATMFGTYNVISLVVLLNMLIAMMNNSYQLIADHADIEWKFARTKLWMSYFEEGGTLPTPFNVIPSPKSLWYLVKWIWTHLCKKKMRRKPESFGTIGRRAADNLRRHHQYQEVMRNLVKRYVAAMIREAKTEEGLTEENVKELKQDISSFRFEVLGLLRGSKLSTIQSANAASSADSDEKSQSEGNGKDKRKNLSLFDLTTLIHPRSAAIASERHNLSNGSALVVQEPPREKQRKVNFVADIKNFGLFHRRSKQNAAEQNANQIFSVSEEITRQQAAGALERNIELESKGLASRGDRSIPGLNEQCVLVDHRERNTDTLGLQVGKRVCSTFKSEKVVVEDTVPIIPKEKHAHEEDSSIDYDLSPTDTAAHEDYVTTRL
# [2] = A cytotoxicity screen of small molecule inhibitors of the PhoP region in Salmonella typhi identified in the primary screen. [Related pubchem assays: 1850, 1864, 1985 ]; type: functional
# Aminopeptidase N = target: T2, Aminopeptidase N (Plasmodium falciparum FcB1/Columbia, UniProt O96935); assay: P. falciparum M1AAP inhibitors, biochemical, fluorogenic H-Leu-NHMec substrate, 1536-well (AID 1445); design: species or system Plasmodium falciparum 3D7, 3D7
# T2 sequence (O96935 whole entry): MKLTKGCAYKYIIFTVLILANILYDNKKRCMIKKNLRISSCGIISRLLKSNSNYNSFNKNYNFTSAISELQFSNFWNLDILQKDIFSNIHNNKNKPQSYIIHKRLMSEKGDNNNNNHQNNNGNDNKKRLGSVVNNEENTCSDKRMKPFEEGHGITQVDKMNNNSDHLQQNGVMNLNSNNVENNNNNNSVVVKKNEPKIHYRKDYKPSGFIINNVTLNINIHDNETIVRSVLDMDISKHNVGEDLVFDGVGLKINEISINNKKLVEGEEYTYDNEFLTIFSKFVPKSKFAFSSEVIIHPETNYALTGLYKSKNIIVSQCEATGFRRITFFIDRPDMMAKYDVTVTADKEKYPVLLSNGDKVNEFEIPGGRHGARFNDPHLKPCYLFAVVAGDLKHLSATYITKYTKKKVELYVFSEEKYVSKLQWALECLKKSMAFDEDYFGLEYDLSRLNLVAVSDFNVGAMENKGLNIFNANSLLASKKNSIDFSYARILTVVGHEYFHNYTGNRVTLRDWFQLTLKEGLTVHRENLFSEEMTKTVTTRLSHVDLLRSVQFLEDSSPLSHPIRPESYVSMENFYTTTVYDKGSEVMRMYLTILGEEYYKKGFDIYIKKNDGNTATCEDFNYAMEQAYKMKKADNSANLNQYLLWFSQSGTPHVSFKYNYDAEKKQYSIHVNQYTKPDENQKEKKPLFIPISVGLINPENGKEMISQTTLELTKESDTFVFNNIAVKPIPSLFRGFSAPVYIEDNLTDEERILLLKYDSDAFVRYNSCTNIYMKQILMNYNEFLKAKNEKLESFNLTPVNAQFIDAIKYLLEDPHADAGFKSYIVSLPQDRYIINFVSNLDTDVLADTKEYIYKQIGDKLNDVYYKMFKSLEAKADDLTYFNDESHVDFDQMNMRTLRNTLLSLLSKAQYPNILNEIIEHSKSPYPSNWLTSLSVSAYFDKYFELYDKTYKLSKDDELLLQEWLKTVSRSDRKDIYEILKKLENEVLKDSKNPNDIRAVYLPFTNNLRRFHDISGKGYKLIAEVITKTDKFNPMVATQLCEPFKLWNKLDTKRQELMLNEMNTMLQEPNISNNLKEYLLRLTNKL
# [3] = target: T3, DNA repair protein RAD52 homolog (Homo sapiens, UniProt P43351); type: functional, biochemical
# T3 sequence (P43351 whole entry): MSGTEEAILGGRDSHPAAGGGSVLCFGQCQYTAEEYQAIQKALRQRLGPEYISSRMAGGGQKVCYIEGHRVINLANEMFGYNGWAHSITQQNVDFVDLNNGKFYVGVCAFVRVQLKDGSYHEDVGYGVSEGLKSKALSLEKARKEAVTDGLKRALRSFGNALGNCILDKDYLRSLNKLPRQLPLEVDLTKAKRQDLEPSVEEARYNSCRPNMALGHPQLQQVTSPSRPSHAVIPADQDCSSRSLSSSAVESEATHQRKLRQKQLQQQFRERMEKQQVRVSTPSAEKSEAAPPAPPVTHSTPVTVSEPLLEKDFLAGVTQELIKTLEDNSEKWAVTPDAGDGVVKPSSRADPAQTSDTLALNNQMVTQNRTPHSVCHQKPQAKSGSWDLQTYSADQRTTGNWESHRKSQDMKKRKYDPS
# [4] = growth suppression of PTEN-null colon cells, dose response, cell-based, HCT116 PTEN knockout (AID 1047); type: functional;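 also: HCT116 colon tumor cells with PTEN knocked out; cells exposed to compound for 60 hours before readout; potency for loss of cell viability measured by luminescence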
# [5] = growth suppression of beta-catenin-knockout colon cells, dose response, cell-based, HCT116, human colon tumor (AID 1045); type: functional;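 also: HCT116 colon tumor cells with beta catenin knocked out; cells exposed to compound for 60 hours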
# [6] = target: T4, Polyadenylate-binding protein 1 (Homo sapiens, UniProt P11940); assay: PABP1 MLLE–PAM2 interaction inhibitors, dose response, miRNA deadenylation inhibitor project, biochemical, fluorescence polarization, Cy5-PAM2 peptide, secondary (AID 602260); type: functional; settings: read-out: IC50_Mean
# [7] = target: T4, Polyadenylate-binding protein 1; assay: PABP1 MLLE–PAM2 binding inhibitor potency, dose response, biochemical, fluorescence polarization, FITC-PAM2 peptide (AID 602259); type: functional; settings: read-out: IC50_Mean
# [8] = inhibitors of firefly luciferase expression or activity, dose response, H4 neuroglioma cells, luminescence (AID 1990); type: functional, cell-based
# [9] = Luminescence Cell-Based Dose Response HTS to Identify Inhibitors of 5'UTR Stem-Loop Driven Prion Protein mRNA Translation in H4 Neuroglioblastoma Cells. [Related pubchem assays: 1827 (Project Summary), 1813 (Primary HTS)]; type: functional
# [10] = inhibitors of SNCA 5'UTR-driven reporter translation, confirmation, H4 neuroglioma cells, luminescence (AID 1988); type: functional, cell-based
# [11] = target: T5, RNA-binding protein pos-1 (Caenorhabditis elegans, UniProt G5EF15); assay: inhibitors of POS-1/mex-3 RNA binding, dose response, biochemical, fluorescence polarization (AID 1964);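 also: purified POS-1 fused to maltose binding protein made in E. coli; potency of compounds blocking POS-1 binding to fluorescent RNA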
# T5 sequence (G5EF15 whole entry): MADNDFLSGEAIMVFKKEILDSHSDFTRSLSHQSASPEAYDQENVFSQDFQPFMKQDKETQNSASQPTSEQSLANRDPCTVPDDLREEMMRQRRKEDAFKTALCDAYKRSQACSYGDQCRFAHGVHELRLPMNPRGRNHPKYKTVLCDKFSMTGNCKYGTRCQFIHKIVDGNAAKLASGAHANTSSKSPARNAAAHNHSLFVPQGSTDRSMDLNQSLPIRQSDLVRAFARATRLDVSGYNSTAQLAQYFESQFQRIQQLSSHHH
# [12] = target: T6, Zinc finger protein mex-5 (Caenorhabditis elegans, UniProt Q9XUB2); assay: MEX-5/TCR-2 RNA interaction inhibitors, dose response, biochemical, C. elegans, fluorescence polarization (AID 1960)
# T6 sequence (Q9XUB2 whole entry): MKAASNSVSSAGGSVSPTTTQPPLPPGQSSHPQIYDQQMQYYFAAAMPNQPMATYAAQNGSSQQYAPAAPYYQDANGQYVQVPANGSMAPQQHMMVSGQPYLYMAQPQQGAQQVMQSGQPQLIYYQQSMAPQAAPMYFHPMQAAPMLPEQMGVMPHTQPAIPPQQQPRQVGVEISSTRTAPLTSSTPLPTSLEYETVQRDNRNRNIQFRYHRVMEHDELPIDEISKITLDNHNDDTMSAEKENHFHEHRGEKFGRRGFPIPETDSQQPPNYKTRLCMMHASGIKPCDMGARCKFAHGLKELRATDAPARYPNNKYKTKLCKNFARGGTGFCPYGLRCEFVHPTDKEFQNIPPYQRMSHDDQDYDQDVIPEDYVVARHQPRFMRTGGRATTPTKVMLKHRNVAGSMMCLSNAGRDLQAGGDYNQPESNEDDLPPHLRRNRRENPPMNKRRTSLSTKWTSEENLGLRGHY
# [13] = inhibitors of intracellular T. cruzi replication, confirmation, NIH3T3 host cells, beta-gal luminescence (AID 2044); type: functional, cell-based;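 also: intracellular parasites grown in NIH/3T3 mouse fibroblasts as host cells; luminescent beta-galactosidase reporter signal from transgenic T. cruzi replicating inside host cells; inhibitors lower the luminescence signal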
# [14] = cytotoxicity toward NIH3T3 fibroblasts, dose response, counter-screen, cell-based, ATP luminescence, mouse fibroblasts (AID 2010); type: functional;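 also: cells exposed to compound for about 90 hours before reading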
# Caspase-6 = target: T7, Caspase-6 (Homo sapiens, UniProt P55212); assay: human caspase-6 inhibitors, dose response, biochemical, VEID-R110 fluorescence, cherry-pick (AID 720632)
# T7 sequence (P55212 whole entry): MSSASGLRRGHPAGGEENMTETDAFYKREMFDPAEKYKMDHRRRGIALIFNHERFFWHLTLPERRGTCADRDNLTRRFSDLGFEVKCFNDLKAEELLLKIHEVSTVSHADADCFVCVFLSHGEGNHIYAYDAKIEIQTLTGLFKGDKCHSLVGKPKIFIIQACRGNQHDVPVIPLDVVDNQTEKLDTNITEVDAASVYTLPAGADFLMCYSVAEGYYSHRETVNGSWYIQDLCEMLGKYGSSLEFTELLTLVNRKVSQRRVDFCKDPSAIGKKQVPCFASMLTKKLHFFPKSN
# [15] = target: Luciferin 4-monooxygenase (Photinus pyralis, UniProt P08659); assay: firefly luciferase enzyme inhibitors, dose response, biochemical, luminescence (AID 1891)
# [16] = Luminescence Cell-Based Dose Confirmation HTS to Identify Inhibitors of Platelet Dense Granule Release. [Related pubchem assays: 1663 (Primary HTS), 1678 (Summary of Project)]; type: functional
# T4 sequence (P11940 whole entry): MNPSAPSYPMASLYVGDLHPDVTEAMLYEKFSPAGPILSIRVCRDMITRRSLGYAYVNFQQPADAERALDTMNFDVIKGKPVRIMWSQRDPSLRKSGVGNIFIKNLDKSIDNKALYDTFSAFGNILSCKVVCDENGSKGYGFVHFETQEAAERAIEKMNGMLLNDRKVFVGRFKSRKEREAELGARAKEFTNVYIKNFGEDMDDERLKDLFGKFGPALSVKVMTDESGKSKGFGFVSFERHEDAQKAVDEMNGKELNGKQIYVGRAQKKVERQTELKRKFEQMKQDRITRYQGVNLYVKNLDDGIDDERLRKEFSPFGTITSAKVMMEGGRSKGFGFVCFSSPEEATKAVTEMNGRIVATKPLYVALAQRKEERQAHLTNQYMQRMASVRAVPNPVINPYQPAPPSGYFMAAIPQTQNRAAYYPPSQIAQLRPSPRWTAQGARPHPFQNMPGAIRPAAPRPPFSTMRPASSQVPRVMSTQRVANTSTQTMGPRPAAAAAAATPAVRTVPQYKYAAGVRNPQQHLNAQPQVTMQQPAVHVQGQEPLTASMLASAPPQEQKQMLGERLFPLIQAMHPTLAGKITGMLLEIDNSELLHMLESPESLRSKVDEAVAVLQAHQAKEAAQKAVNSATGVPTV
# Sequence of Luciferin 4-monooxygenase (P08659 whole entry): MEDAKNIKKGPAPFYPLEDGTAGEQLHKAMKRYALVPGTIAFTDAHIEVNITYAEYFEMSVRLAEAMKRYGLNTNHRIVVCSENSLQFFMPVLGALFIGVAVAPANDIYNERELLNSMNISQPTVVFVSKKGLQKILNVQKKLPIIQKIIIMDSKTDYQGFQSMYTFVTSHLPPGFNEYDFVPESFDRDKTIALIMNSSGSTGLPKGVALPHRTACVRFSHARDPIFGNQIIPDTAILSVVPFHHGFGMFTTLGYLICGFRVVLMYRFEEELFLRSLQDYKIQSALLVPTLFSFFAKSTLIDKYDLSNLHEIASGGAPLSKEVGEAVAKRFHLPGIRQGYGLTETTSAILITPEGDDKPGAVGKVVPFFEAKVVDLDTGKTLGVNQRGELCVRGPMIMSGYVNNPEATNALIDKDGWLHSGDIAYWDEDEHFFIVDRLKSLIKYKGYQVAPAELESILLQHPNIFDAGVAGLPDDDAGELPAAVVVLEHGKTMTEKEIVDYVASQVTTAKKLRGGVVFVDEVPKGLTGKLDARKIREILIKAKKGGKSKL
compound,measurement,setting,value
COc1ccc(CN2CCN(C(=O)c3ccc(F)cc3)CC2)c(OC)c1,EC50,[1],3.76 µM (active)
CCCC(c1nnnn1Cc1ccc(OC)cc1)N1CCN(c2ccccc2OC)CC1 (centres undefined),EC50,[2],> 50 µM (active)
Cc1ccc2c(c1)N(C(=O)CCC(=O)Nc1ccccc1Cl)CC(C)O2 (centres undefined),EC50,[1],1.5 µM (active)
COc1ccc(OC)c(S(=O)(=O)N2CCC(C(=O)NCCc3ccc(OC)c(OC)c3)CC2)c1,EC50,[2],> 50 µM (active)
O=C(Cc1ccccc1)N1CCN(Cc2cccc(Br)c2)CC1,EC50,[1],13.3 µM (active)
C=CCOc1ccc(/C=C2\C(=N)N3N=C(S(=O)(=O)CC)SC3=NC2=O)cc1OC,IC50,Aminopeptidase N,24.5 µM (active)
Cc1cc(N)ccc1NC(=O)CN1CCCC1,AC50,[3],1.73 µM (active)
CCCc1cc(=O)oc2c(CN3CCN(C)CC3)c(O)c(Cl)cc12,IC50,Aminopeptidase N,42 µM (active)
NC(=O)SCC(=O)Nc1ccc(Cl)c(Cl)c1,EC50,[2],> 50 µM (active)
same,EC50,[4],50.8 µM (active)
same,EC50,[5],31 µM (active)
same,IC50,[6],> 66 µM (inactive)
same,IC50,[7],> 66 µM (inactive)
OCCN1CCN(CC(O)COc2ccc(C34CC5CC(CC(C5)C3)C4)cc2)CC1 (centres undefined),EC50,[8],> 120 µM (not active)
same,EC50,[9],> 120 µM (not active)
same,EC50,[10],> 120 µM (not active)
same,AC50,[3],16 µM (active)
COCCOC(=O)c1c(C)oc2ccc(NS(=O)(=O)c3cccs3)cc12,IC50,Aminopeptidase N,48.5 µM (active)
CCOc1c(Cl)cc(CNCC(O)c2ccccc2)cc1OC (centres undefined),EC50,[1],2.11 µM (active)
Cc1cccc(NC(=O)c2sc3nc(-c4ccccc4)cn3c2C)n1,EC50,[11],> 300 µM (not active)
same,EC50,[2],> 50 µM (active)
same,EC50,[12],> 300 µM (not active)
Cc1cccc(-n2nc(C)c3c(C(=O)O)cc(-c4cccs4)nc32)c1,EC50,[1],2.99 µM (active)
O=S(=O)(c1ccccc1)N1CCN(C/C=C/c2ccccc2)CC1,EC50,[1],5.96 µM (active)
CCC(Sc1nc2cc[nH]cc-2n1)C(=O)Nc1ccc(C)c(Cl)c1 (centres undefined),EC50,[2],> 50 µM (active)
same,EC50,[13],2.06 µM (active)
same,EC50,[14],> 60 µM (not active)
NC(=O)C1C(=O)c2ccccc2C1(C[N+](=O)[O-])c1ccccc1 (centres undefined),AC50,Caspase-6,38.1 µM (active)
Cn1c(N)c(N=O)c(=O)n(C)c1=S,AC50,Caspase-6,6.37 µM (active)
O=C(/C=C/c1ccc(O)cc1)c1ccccc1 [4-HYDROXYCHALCONE],EC50,[2],> 50 µM (active)
same,EC50,[15],< 0.088 µM (active)
same,EC50,[16],< 0.701 µM (active)
C[C@](N)(Cc1ccc(O)c(O)c1)C(=O)O [METHYLDOPA],AC50,Caspase-6,39.2 µM (active)
CC[C@@H](CO)NC(=O)[C@@H]1C=C2c3cccc4[nH]cc(c34)C[C@H]2N(C)C1 [METHYLERGONOVINE MALEATE],AC50,Caspase-6,7.04 µM (active)
